The results in this text go back to patent US5336485A, “Method for protecting animals against tacrine induced cytotoxic injury using sterol compounds” (priority 1993, dated 1994).

One assay has as its system male Sprague-Dawley rats. Put plainly: CCl4 induced lethality in rats. It counts as in vivo, rat. As to conditions: for Survival after CCl4 treatment: 100 mg/kg ip 24 h prior, […] CCl4 oral; for Days Survived After CCl4 Treatment: single dose 24 h prior. How it is done:
The in vivo effect of alpha-TS was tested by administering a lethal oral dose of carbon tetrachloride (CC14) to male Sprague-Dawley rats.
In the experiment described in Table 3, a single dose of alpha-TS dissolved in peanut oil:ethanol (3:2) was given to male Sprague-Dawley rats. The dose was given 24 hours prior to an orally administered CCl4 challenge dissolved in peanut oil. Two to nine animals were tested per treatment. The control group comprised rats pretreated with the vehicle only. Survival was monitored for at least 7 days after the toxic insult.
In vivo experiments were performed to determine if the time the ionizable tocopherol analog (alpha-TS) is administered affects the cytoprotective functions. Male Sprague-Dawley rats were given a 100 mg/kg intraperitoneal dose of a tocopherol or succinate analog and were given a lethal dose of CCl4 (2.9g/kg by oral gavage). Table 7 contrasts the times of administration of the tocopherol or succinate analog and the times of administration of the lethal dose of CCl4 with the survival of the rats in the study (3to 6 rats per protective treatment).
Several tocopherol and succinate analogs were tested for CCl4 induced lethality. A single dose of the tocopherol or succinate analog was administered twenty four hours prior to orally administering 2.9 g CCl4 /kg body weight. Three to six animals were analyzed per treatment. The rats were monitored for seven days. […]

In the next assay the test system is rat hepatocytes. As to the kind of experiment: EMS-induced cytotoxicity (LDH leakage/cell death) in rat hepatocyte suspensions. As to conditions: Rattus norvegicus, Hepatocyte, 5 h. How it is done: To determine if alpha-TS is a cytoprotective agent under physiological conditions, liver cells were incubated with Waymouth's medium containing approximately 1 mM extracellular Ca^2+ in the presence and absence of alpha-TS.
At each time-point, rapid separation of viable from non-viable hepatocytes and medium was accomplished by the dibutyl phthalate centrifugation method. Cell viability was monitored hourly by measuring LDH leakage with a Cobas Analyzer and intracellular [K^+ ]with a flame photometer. LDH was routinely measured in the medium while intracellular K^+ was measured in the 10% perchloric acid lysate of viable cells. Lipid peroxidation was determined by measuring TBA reactants in the medium. […] The samples were diluted with 0.3 ml 1% ascorbate in 0.1 M SDS, 0.4 ml ethanol, sonicated and extracted once with 0.8 ml hexane. Next, the hexane extract was evaporated to dryness with N2, the residue dissolved in 2.5% ascorbate in methanol (1 ml) and analyzed (100 μl) by high-performance liquid chromatograph (HPLC). […] The mobile phase, 95% MeOH was run isocratically and the HPLC retention times for delta and alpha-tocopherol were approximately eleven and sixteen minutes, respectively. […] Following the addition of 0.2 ml 4 M HC1, the neutralized KOH-MeOH extracted with 0.8 ml hexane. […] A standard curve for each tocopherol congener was run with every assay. […] Only viable cells were monitored in the laboratory procedures.
To determine the relative cytoprotective potency of various tocopherol derivatives, the effect of varying doses of a tocopherol analog on the protection against EMS-induced toxicity was examined in vitro on rat hepatocyte suspensions. Specifically, the following ionizable tocopherol congeners were tested: alpha-TS, alpha tocopheryl glutarate (alpha-TG), and alpha tocopheryl phosphate (alpha-TP). […] 0.1 nmoles is the lower detection limit.
In vitro experiments were conducted with a variety of different tocopherol and succinate analogs to determine which were protective against EMS induced toxicity. After five hours of incubation with 50 mM EMS and 25μM of a tocopherol or succinate analog, cytoprotection was determined by comparing the percentage of LDH leakage from control hepatocytes (vehicle only, assumed 100% protection) with the EMS only treated cells (assumed 0% protection).
An in vitro experiment with rat hepatocyte suspensions was performed to determine the effect of esterase inhibitors on alpha-TS.
Rat hepatocyte suspensions were subjected to 50 mM EMS and the percentage of cell death, the percentage of intracellular K^+ (a metabolic parameter as discussed above), the depletion of ATP and the effect on lipid peroxidation were monitored.

The next assay has as its system liver. Put plainly: CCl4 induced hepatotoxicity in rats (serum AST/ALT). It counts as in vivo, rat. As to conditions: for protection against CCl4 hepatotoxicity (in words): rats, serum enzyme levels. The procedure: In vivo experiments were performed to determine if alpha-TS administration protects the liver from chemical toxicity. The liver is the target organ for CCl4. CCl4 is a hepatotoxic agent that induces centrilobular liver necrosis through its metabolism to free radicals. Male Sprague-Dawley rats were given an intraperitoneal dose (100 mg/kg) of a tocopherol analog 24 hours prior to a CCl4 challenge (2.9g/kg given by oral garage). Forty eight hours after the challenge, the rats were sacrificed and the levels of aspartate aminotransferase (AST) and alanine aminotransferase (ALT) were measured.
As discussed above, SGOT levels provide a clinical assessment of hepatotoxicity (liver damage).
Succinate analogs were administered to male Sprague-Dawley rats 20 hours prior to a 1 g CCl4 /kg body weight oral challenge and the AST and ALT serum enzyme levels were measured 48 hours after the challenge.
Similar to the experiments were described above, the ionizable congeners were administered to Sprague-Dawley rats by i.p. injection of a 100 mg ionizable congener/kg body weight dose 20 hours prior to oral administration of a 1 g/kg dose of CCl4, and the AST and ALT levels were measured 48 hours after the CCl4 challenge.

The mark [1] stands for this setting: read-out: Percent Cytoprotection, 25 μM, 50 mM EMS, 5 h.
Where [2] appears, read: 100 mg/kg ip, 48 h after 1 g/kg CCl4 (Table 40).
Setting [3] is: 100 mg/kg ip, 48 h after 1 g/kg CCl4 (Table 42).
The mark [4] stands for this setting: 100 mg/kg ip, 48 h after 1 g/kg CCl4 (Table 33).
Setting [5] is: Rattus norvegicus, 100 mg/kg ip 20 h prior, 48 h after 1 g/kg CCl4, read-out: % Hepatoprotection.
[6] abbreviates: 100 mg/kg ip (dihydrocholesterol 80 + sodium sulfate 30 mg/kg), 48 h after 1 g/kg CCl4 (Table 35).
Where [7] appears, read: 100 mg/kg ip, peanut oil vehicle, 48 h after 1 g/kg CCl4 (Table 39).
The mark [8] stands for this setting: 100 mg/kg ip, 48 h after 1 g/kg CCl4 (Table 37).
Setting [9] is: 50 mg/kg ip, 48 h after 1 g/kg CCl4 (Table 41).

Molecules are shown by their SMILES. Structures can show the parent of a compound that is named as a salt. Where two headings read alike, the source gives them in different places.

Take `Cc1c(C)c2c(c(C)c1OC(=O)CC(C)C(=O)O)CC[C@@](C)(CCC[C@H](C)CCC[C@H](C)CCCC(C)C)O2` (stereo partly drawn) [Alpha-Tocopherol 3-Methyl Succinate, alpha-tocopheryl 3-methyl succinate]: in the assay on male Sprague-Dawley rats, the “Survival after CCl4 treatment” value is given as “No”. In the assay with male Sprague-Dawley rats (100 mg/kg), the “Days Survived After CCl4 Treatment” value stood at 2 days. Besides, the inhibition at 25 µM in the assay with rat hepatocytes (setting [1]) stood at 70 ± 9%.

On to `Cc1c(C)c2c(c(C)c1OC(=O)CCCC(=O)O)CCC(C)(CCCC(C)CCCC(C)CCCC(C)C)O2` (stereo not drawn) [Alpha-Tocopherol Glutarate, alpha-tocopherol monoglutarate], for which the “Survival after CCl4 treatment” value in the assay on male Sprague-Dawley rats was “No”. In addition, the “Days Survived After CCl4 Treatment” value in the assay with male Sprague-Dawley rats (100 mg/kg) is 2 days. In the assay on rat hepatocytes (setting [1]), the inhibition at 25 µM stood at 55 ± 15%.

As for `Cc1c(C)c2c(c(C)c1OC(=O)CCC(N)=O)CC[C@@](C)(CCC[C@H](C)CCC[C@H](C)CCCC(C)C)O2` [Alpha-Tocopherol Succinamide], the inhibition at 25 µM with rat hepatocytes (setting [1]) was 0%.

As to `Cc1cc(OC(=O)CCC(=O)O)cc2c1OC(C)(CCCC(C)CCCC(C)CCCC(C)C)CC2` (centres unmarked) [Delta-Tocopherol Succinate, Delta-tocopherol mono succinate], the inhibition at 25 µM in the assay on rat hepatocytes (setting [1]) stood at 70 ± 24%.

As to `Cc1cc(O)cc2c1OC(C)(CCCC(C)CCCC(C)CCCC(C)C)CC2` (centres unmarked) [Delta-Tocopherol, reference compound], in the assay with rat hepatocytes (read-out: Percent Cytoprotection), the inhibition at 25 µM is 0%.

With `C[C@]12CC[C@@H]3c4ccc(OC(=O)CCC(=O)O)cc4CC[C@H]3[C@@H]1CCC2=O` [Estrone 3-Succinate], in the assay with liver (setting [2]), the ALT is on record as 0.51 ± 0.56 10^3 units/L and the AST was 1.71 ± 1.00 10^3 units/L. Besides, in the assay on liver (setting [3]), the ALT is on record as 0.32 ± 0.12 10^3 units/L and the AST was 0.70 ± 0.20 10^3 units/L. The “protection against CCl4 hepatotoxicity (in words)” value (shortened to “protection”) with liver is on record as “slight cytoprotection”.

With `CC(=O)Oc1ccc2c(c1)CCC1C2CC[C@]2(C)C(=O)CCC12` (some centres unmarked) [Estrone Acetate, reference compound], in the assay with liver (setting [3]), the ALT was 0.18 ± 0.08 10^3 units/L and the AST is 0.53 ± 0.24 10^3 units/L.

For `C[C@]12CC[C@@H]3c4ccc(OS(=O)(=O)O)cc4CC[C@H]3[C@@H]1CCC2=O` [Estrone sulfate, potassium salt], in the assay with liver (ip, 100 mg/kg, 48 h), the ALT is recorded as 0.87 ± 0.59 10^3 units/L and the AST is reported as 4.19 ± 2.75 10^3 units/L. For the same compound, the “protection” value with liver is listed as “slight cytoprotection”.

For `C[C@]12CC[C@@H]3c4ccc(O)cc4CC[C@H]3[C@@H]1CCC2=O` [Estrone, reference compound], in the assay with liver (setting [3]), the ALT is given as 0.33 ± 0.30 10^3 units/L and the AST was 0.56 ± 0.45 10^3 units/L.

On to `C[C@]12CCC(=O)C=C1CC[C@@H]1[C@@H]2[C@@H](O)C[C@@]2(C)[C@H]1CC[C@]2(O)C(=O)COC(=O)CCC(=O)O` [Hydrocortisone 21-succinate, reference compound], for which, in the assay on liver (setting [4]), the ALT is recorded as 1.596 ± 0.887 10^3 units/L and the AST is recorded as 6.18 ± 3.15 10^3 units/L. For the same compound, the inhibition in vivo at 100 mg/kg with liver (setting [5]) came to 25%. Also, the “protection” value with liver is reported as “no cytoprotection was observed”.

As for `CCCCCCCCCCCCOS(=O)(=O)[O-].[Na+]` [Lauryl sulfate, sodium salt], in the assay with liver (setting [2]), the ALT is given as 1.40 ± 0.59 10^3 units/L and the AST is 5.00 ± 1.54 10^3 units/L. Moreover, the inhibition in vivo at 100 mg/kg in the assay on liver (Rattus norvegicus, ip, 48 h, read-out: % Hepatoprotection) came to 26%. Besides, the “protection” value in the assay with liver was “generally not protective”.

Take `CCCCC/C=C\C/C=C\CCCCCCCCO` [Linoleyl alcohol, reference compound]: in the assay with liver (setting [6]), the ALT is 5.45 ± 1.10 10^3 units/L and the AST was 15.60 ± 2.98 10^3 units/L. Moreover, the “protection” value in the assay with liver is “potentiates CCl4 toxicity”.

Regarding `CCCCC/C=C\C/C=C\CCCCCCCCOC(=O)CCC(=O)O` [Linoleyl succinate], the ALT in the assay with liver (setting [6]) is reported as 1.44 ± 0.59 10^3 units/L; with liver (setting [7]), 1.95 ± 0.84 10^3 units/L. The results for the AST in the assay on liver (setting [6]) and in the assay with liver (setting [7]) were 4.47 ± 2.21 10^3 units/L and 5.60 ± 1.30 10^3 units/L, respectively. For the same compound, the inhibition in vivo at 100 mg/kg in the assay on liver (setting [5]) was 46%.

With `CCCCCCCCCCCCCCCCO` [Palmityl Alcohol, reference compound], in the assay with liver (setting [4]), the ALT is given as 1.840 ± 1.106 10^3 units/L and the AST is 8.70 ± 3.00 10^3 units/L. For the same compound, the “protection” value in the assay on liver is listed as “generally not protective”.

`CCCCCCCCCCCCCCCCOC(=O)CCC(=O)O` [Palmityl succinate]: in the assay with liver (setting [4]), the ALT is given as 1.679 ± 0.881 10^3 units/L and the AST is given as 6.54 ± 3.61 10^3 units/L. Also, in the assay with liver (setting [5]), the inhibition in vivo at 100 mg/kg came out at 22%.

As to `C/C(=C\COC(=O)CCC(=O)O)CCCC(C)CCCC(C)CCCC(C)C` (centres unmarked) [Phytol succinate], in the assay with liver (setting [8]), the ALT is listed as 1.70 ± 0.18 10^3 units/L and the AST is 3.29 ± 0.51 10^3 units/L. Also, the inhibition in vivo at 100 mg/kg with liver (setting [5]) came to 27%. Also, the “protection” value in the assay with liver was “generally not protective”.

Take `C/C(=C\CO)CCC[C@H](C)CCC[C@H](C)CCCC(C)C` [Phytol, reference compound]: in the assay with liver (setting [8]), the ALT is recorded as 2.82 ± 0.54 10^3 units/L and the AST is given as 4.71 ± 1.00 10^3 units/L. Further, in the assay on liver, the “protection” value is on record as “generally not protective”.

Regarding `CC1=C(/C=C/C(C)=C/C=C/C(C)=C/C(=O)O)C(C)(C)CCC1` [Retinoic acid, reference compound], in the assay on liver (setting [9]), the ALT is 6.14 ± 0.74 10^3 units/L and the AST is on record as 17.94 ± 0.71 10^3 units/L. Besides, the inhibition in vivo at 50 mg/kg with liver (Rattus norvegicus, 50 mg/kg ip 20 h prior, 48 h after 1 g/kg CCl4, read-out: % Hepatoprotection) is -83%. In the assay with liver, the “protection” value is recorded as “potentiated CCl4 toxicity”.

For the compound `O=C(O)CCC(=O)O` [Succinic Acid, Na Salt, reference compound], the “Days Survived after CCl4” value with male Sprague-Dawley rats (1 g/kg, 24 hours or 1 hour prior and daily thereafter) was determined as 2 days. In addition, the “Days Survived After CCl4 Treatment” value with male Sprague-Dawley rats (1 g/kg) is 2 days.
